Entries after “also recorded” stand apart in the source; their conditions may differ.
How the values were obtained:
PLC5 cells = experiment: MTT assay for cell growth inhibition in PLC5 cells; format: cell-based
Protocol: These compounds were analyzed by MTT assay for cell growth inhibition in the PLC5 cells.
Next, we changed the pyridine to a quinoline ring and amide linker to generate compounds 12-25. These compounds were also analyzed by MTT assay for cell growth inhibition in the PLC5 cells.

Raf-1 = target: T1, Raf-1 (Homo sapiens, UniProt P04049); experiment: Raf-1 kinase activity in lysates of treated cells; format: cell-based
T1 construct: Raf-1 immunoprecipitated from PLC5 cell extracts was incubated with MEK recombinant protein; endogenous in cells; host or cells: PLC5
T1 sequence (P04049 whole entry): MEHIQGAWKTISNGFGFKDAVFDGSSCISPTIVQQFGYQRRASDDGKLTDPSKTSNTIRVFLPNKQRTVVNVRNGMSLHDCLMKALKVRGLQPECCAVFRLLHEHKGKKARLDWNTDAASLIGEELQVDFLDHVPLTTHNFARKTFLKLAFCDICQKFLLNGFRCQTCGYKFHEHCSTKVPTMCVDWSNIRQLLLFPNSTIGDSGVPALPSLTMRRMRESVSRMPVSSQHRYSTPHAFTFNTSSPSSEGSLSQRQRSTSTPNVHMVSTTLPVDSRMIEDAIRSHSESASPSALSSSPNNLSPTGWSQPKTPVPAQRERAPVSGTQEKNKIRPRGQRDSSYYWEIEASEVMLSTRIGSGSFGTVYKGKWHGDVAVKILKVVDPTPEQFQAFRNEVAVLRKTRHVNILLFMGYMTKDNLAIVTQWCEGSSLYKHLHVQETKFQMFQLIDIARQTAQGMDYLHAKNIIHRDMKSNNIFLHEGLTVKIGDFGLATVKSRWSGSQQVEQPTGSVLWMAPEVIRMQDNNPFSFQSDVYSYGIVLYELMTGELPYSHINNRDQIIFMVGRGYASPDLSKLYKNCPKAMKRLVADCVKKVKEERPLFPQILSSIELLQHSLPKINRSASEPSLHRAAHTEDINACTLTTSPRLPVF
Excerpt: (§1) The RediPlate 96 EnzChek® Tyrosine Phosphatase Assay Kit (R-22067) was used for SHP-1 activity assay (Molecular Probes, Carlsbad, Calif.). The Raf-1 kinase cascade assay kit (Upstate-Millipore, Billerica, Mass.) was used to examine the Raf-1 kinase activity. The JAK2 kinase activity kit was purchased from Reaction Biology Corp. (Malvern, Pa.).

phospho-STAT3 (Tyr705) = experiment: Phospho-STAT3 (Tyr705) sandwich ELISA; format: cell-based
Protocol: A PathScan Phospho-Stat3 (Tyr705) Sandwich ELISA Kit was used for the detection of phospho-STAT3 (Cell Signaling, Danvers, Mass.). Cells were pre-treated with IL-6 1 ng/ml and then exposed with various compounds at 10 μM for 24 h. After incubation with cell lysates, both non-phospho- and phospho-Stat3 proteins are captured by the coated antibody. The expression of phospho-STAT3 was measured at 450 nm absorbance.
The decreased level of P-STAT3 induced by these derivatives was correlated with cell toxicity. In the other words, these derivatives induced cell death in part through inhibition of STAT3.
We also assayed the activation status of p-STAT3 by STAT3 ELISA. […] SC-1 or sorafenib-treated cell extracts were incubated with antibody against phosphorylated STAT3 at Y705. […] To evaluate the transcriptional activity, STAT3-binding region was cloned into Luc reporter. […] The firefly luciferase activity was evaluated and normalized by Renilla luciferase.
p-STAT3 activity: PLC5 cells treated with SC derivatives were collected in RIPA buffer and analyzed in p-STAT3 ELISA kit. The assay protocol follows the manufacturer.

[1] = system: p-STAT3, cyclin D1, survivin, Mc1-1; experiment: Western blot of STAT3-related proteins in HCC cells; format: cell-based; conditions: HCC cells, 24 h
Protocol: Cells were treated with various compounds at 5 and 10 μM for 24 h. Cell lysates were analyzed by western blot.
HCC cells treated with SC-43 (10 μM for 24 h) were collected with RIPA lysis buffer. Antibodies for immunoblotting such as cyclin D1 was purchased from Santa Cruz Biotechnology. Other antibodies such as survivin, phospho-STAT3 (Tyr705), STAT3, Mc1-1, SOCS1, and SOCS3 were from Cell Signaling.

JAK2 = target: T2, JAK2 (Homo sapiens, UniProt O60674); experiment: JAK2 kinase activity; format: cell-based; conditions: PLC5 cells, 10 μM, 24 h
T2 construct: endogenous in cells; host or cells: PLC5
T2 sequence (O60674 whole entry): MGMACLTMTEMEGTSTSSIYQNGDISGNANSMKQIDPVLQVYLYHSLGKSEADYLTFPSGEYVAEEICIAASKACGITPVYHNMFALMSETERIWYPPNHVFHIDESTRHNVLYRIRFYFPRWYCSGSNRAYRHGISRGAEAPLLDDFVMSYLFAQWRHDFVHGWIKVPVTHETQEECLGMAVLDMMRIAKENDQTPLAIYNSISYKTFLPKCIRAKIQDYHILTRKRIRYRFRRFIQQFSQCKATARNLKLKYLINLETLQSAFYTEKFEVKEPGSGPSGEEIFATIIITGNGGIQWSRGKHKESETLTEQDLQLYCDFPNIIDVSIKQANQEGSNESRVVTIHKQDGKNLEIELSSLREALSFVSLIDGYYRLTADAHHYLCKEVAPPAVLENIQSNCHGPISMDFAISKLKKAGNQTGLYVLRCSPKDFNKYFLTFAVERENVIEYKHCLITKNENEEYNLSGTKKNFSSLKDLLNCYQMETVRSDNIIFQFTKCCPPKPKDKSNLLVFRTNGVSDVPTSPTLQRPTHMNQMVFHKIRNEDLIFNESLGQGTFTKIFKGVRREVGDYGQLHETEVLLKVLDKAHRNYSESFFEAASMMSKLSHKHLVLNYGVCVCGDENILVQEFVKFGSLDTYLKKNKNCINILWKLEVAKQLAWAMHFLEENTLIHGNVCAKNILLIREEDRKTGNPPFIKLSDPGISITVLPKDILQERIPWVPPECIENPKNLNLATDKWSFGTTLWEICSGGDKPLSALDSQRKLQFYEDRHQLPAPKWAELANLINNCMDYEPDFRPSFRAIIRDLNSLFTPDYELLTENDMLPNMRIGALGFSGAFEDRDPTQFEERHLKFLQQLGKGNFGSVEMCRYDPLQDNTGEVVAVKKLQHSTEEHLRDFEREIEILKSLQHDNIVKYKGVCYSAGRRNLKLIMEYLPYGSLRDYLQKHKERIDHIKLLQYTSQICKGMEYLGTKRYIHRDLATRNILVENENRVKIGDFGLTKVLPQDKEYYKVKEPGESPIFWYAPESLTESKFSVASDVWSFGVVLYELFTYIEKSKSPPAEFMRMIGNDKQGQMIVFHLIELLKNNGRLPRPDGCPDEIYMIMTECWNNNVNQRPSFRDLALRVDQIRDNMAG
Excerpt: as §1

Huh-7 tumors = system: Huh-7 tumors
Protocol: Male NCr athymic nude mice (5-7 weeks of age) were obtained from the National Laboratory Animal Center (Taipei, Taiwan). All experimental procedures using these mice were performed in accordance with protocols approved by National Taiwan University. […] Controls received vehicle (Chen K F et al. Cancer Res. 2008; 68:6698-6707).

HCC cells [2] = experiment: cells
Excerpt: Points, mean; bars, SD (n=6).
Points, mean; bars, SD ([…]). […] The N-SH2 domain is in orange, the C-SH2 domain is in marine, the PTP domain is in hot pink, and the linkers between them are in gray. […] ELISA, enzyme-linked immunosorbent assay.

HCC cells [3] = experiment: Apoptosis analysis by flow cytometry (sub-G1); format: cell-based; conditions: HCC cells, 24 h
Protocol: Apoptotic cells were measured by flow cytometry (sub-G1). After treatment with various compounds, cells were trypsinized, collected by centrifugation and resuspended in PBS. After centrifugation, the cells were washed in PBS and resuspended in […] (PI) staining solution. Specimens were incubated in the dark for 30 min at 37° C. and then analyzed with an EPICS Profile II flow cytometer (Coulter Corp., Hialeah, Fla.). All experiments were performed in triplicate
Collected cells were fixed in 75% Ethanol and stained with 20 ug/ml Propidium Iodide (PI). Sub-G1 analysis was performed by flow-cytometry. […] Points, mean; bars, SD (n=6).

STAT3 = STAT3 luciferase reporter assay; format: cell-based; conditions: 10 μM, 24 h
Protocol: Cells were seeded in 96-well plate and pre-treated with IL-6 at the dose […] for 30 min. The STAT3 reporter kit was purchased from SABiosciences (Frederick, Md.).
STAT3 reporter assay: PLC5 cells were seeded in a 96-well plate. Cells were pretransfected with STAT3 reporter construct for 24 h and treated with derivatives for another 24 h. The STAT3 Reporter Kit was purchased from SABiosciences.

[4] = system: MDAMB231, MDAMB468, MCF-7, HL-60, KG-1 and ML-1; experiment: Anti-proliferation in breast cancer and leukemia cell lines; format: cell-based; conditions: MDAMB231, MDAMB468, MCF-7, HL-60, KG-1, ML-1
Protocol: The Huh-7 HCC cell line was obtained from the Health Science Research Resources Bank (Osaka, Japan; JCRB0403). The PLC/PRF/5 (PLC5), Sk-Hep-1, and Hep3B cell lines were obtained from American Type Culture Collection (Manassas, Va.). The cells were maintained in DMEM supplemented with 10% FBS, 100 units/mL penicillin G, 100 μg/mL streptomycin sulfate and 25 μg/mL amphotericin B in a 37° C. humidified incubator in an atmosphere of 5% CO2 in air. Other cell lines, including breast cancer cells e.g. MDAMB231, MDAMB468, MCF-7, and leukemia cancer cells e.g. HL-60, KG-1 and ML-1 are also provided for the assays described below.
We also examed the effects of SC-1 and SC-43 in other cancer cell lines, including breast cancer cell lines e.g. MDAMB231, MDAMB468, MCF-7, and leukemia cancer cell lines e.g. HL-60, KG-1 and ML-1.

SHP-1 = SHP-1 (Homo sapiens, UniProt P29350); experiment: Phosphatase activity of SHP-1 immunoprecipitated from PLC5 cells, incubated with compound in vitro; format: biochemical; set-up: PLC5 protein extract was incubated with anti-SHP-1 antibody in immunoprecipitation buffer overnight; endogenous in cells; host or cells: PLC5 (PLC/PRF/5); conditions: PLC5 lysates, incubated 6 hours
SHP-1, sequence (P29350 whole entry): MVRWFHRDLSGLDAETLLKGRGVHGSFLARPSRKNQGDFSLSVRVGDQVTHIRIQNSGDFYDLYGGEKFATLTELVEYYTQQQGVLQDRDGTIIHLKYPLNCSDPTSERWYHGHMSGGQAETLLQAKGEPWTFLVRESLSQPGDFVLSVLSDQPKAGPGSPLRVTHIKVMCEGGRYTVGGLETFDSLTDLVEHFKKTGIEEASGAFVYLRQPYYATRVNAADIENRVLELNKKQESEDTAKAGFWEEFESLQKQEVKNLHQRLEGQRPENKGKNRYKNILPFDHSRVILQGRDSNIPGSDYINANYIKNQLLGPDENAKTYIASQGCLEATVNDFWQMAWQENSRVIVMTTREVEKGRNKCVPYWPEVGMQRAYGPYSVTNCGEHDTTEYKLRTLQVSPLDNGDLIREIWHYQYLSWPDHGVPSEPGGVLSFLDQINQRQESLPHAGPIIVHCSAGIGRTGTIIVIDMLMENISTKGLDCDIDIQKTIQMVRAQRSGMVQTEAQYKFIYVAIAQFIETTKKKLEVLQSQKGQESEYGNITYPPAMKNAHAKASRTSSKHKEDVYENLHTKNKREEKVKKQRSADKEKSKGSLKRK
Protocol: PLC5 protein extract was incubated with anti-SHP-1 antibody in immunoprecipitation buffer overnight. Protein G Sepharose 4 Fast flow (GE Healthcare Bio-Science) was added to each sample, followed by incubation for 3 hours at 4° C. with rotation. […] RediPlate 96 EnzChek Tyrosine Phosphatase Assay kit (R-22067) was used for SHP-1 activity assay (Molecular Probes).

Compound: N#Cc1ccc(Oc2ccc(NC(=O)Nc3ccc(Cl)c(C(F)(F)F)c3)cc2)cc1 [Compound 1, 1-(4-Chloro-3-(trifluoromethyl)phenyl)-3-(4-(4-cyanophenoxyl)phenyl)urea]
- IC50 (PLC5 cells): 7.5 µM
- Raf-1 activity versus vehicle control (Raf-1; PLC5 cells (FIG. 3)): showed the same Raf-1 activity as vehicle control
- inhibition of Raf-1 activity (Raf-1; Raf-1 immunoprecipitated from PLC5 or Hep3B cell extracts, 10 μM, 24 h): did not inhibit the activity of Raf-1
- P-STAT3 state by ELISA (phospho-STAT3 (Tyr705); PLC5 cells, IL-6 stimulated, 10 uM, 24 h): showed a high degree of dephosphorylation of STAT3; also recorded: exhibited the same level of downregulation of P-STAT3 as sorafenib did
- activity of p-STAT3 by STAT3 ELISA (phospho-STAT3 (Tyr705); Sk-Hep1 cells pre-treated with IL-6, 24 h): decreased the activity of p-STAT3 significantly
- p-STAT3 and STAT3-related proteins (Western blot) [1]: down-regulated p-STAT3 at Y705 residue and suppressed Mc1-1 and cyclin D1
- kinase activity of JAK2 (JAK2): neither sorafenib nor SC-1 altered the kinase activity of JAK2
- tumor size relative to vehicle-treated mice at the end of treatment (Huh-7 tumors; Huh-7 xenograft, 10 mg/kg p.o. once daily): 25%
- SHP-1 activity in Huh-7 tumors (Huh-7 tumors; tumor extract): induced significant rising of SHP-1 activity
- p-STAT3 in Huh-7 tumors (Huh-7 tumors; tumor extract, Western blot): down regulated p-STAT3
- viability of HCC cells / cytotoxicity (HCC cells [2]): decreased the viability of various HCC cells
- apoptosis (sub-G1) (HCC cells [3]): showed a significant increase in sub-G1 phase population
- transcription activity of STAT3 (Luc reporter) (STAT3): transcription activity of STAT3 was significantly decreased
- growth of breast cancer and leukemia cell lines [4]: effective in inhibiting the growth of cancer cells
- expression of p-VEGFR2 (Tyr1175) (p-VEGFR2 (Tyr1175)): did not have significant effect
- activity of SHP-1 in SHP-1 immunoprecipitates incubated with drug (SHP-1): increase the activity of SHP-1
